Structures are written as SMILES.

This experiment deals with T1, human GluR2 flip (unedited) AMPA receptor subunit (Homo sapiens, UniProt P42262).
T1 construct: host or cells: HEK 293
T1 sequence (P42262 22-883 isoform P42262-2 limits assumed): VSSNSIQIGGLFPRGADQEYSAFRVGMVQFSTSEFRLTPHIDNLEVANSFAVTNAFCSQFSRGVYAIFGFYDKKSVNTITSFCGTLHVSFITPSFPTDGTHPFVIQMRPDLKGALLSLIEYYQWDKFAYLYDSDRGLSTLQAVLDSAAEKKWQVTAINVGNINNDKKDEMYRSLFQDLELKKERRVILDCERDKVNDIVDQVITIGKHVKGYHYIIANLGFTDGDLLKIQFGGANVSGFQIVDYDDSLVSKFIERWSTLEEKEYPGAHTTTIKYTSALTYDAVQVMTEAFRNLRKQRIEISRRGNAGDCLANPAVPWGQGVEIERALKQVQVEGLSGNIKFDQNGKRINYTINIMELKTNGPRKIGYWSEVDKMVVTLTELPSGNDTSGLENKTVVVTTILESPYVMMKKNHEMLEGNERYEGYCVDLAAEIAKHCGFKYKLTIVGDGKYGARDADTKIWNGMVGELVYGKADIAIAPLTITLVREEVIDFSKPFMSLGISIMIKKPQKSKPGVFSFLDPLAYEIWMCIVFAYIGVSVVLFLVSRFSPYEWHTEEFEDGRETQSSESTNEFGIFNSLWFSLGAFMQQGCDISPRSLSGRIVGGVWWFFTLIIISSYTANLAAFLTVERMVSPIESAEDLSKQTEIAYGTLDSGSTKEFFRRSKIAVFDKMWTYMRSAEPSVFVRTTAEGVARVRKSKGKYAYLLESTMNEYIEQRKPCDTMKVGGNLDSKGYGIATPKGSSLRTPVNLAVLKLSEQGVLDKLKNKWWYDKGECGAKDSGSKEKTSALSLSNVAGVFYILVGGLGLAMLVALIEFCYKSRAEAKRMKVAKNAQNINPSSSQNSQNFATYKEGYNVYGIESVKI
Nature of the experiment: AMPA calcium ion influx assay. To be noted: HEK293; test compound concentration of 10 μM; HEK 293 cells expressing human GluR2 flip; glutamate stimulus; read-out: Mean % response at 10 μM. The experiment is classed as cell-based. An excerpt: The potentiation of AMPA receptors by the compounds of the invention may be assessed by measuring calcium ion influx via AMPA receptors upon exposure of the receptor to glutamate in the presence of a test compound. One such assay is the calcium ion influx assay described in the Examples using cells which express human GluR2 flip (GluA2 flip) AMPA receptor subunits which form functional homotetrameric AMPA receptors. The GluA2 flip sub-units are highly expressed in cortical and sub-cortical brain tissue (Ward et al., 2010, ibid).
The ability of the compounds of the invention to potentiate glutamate receptor-mediated response was determined using fluorescent calcium-indicator dye.
96 well plates were prepared containing confluent monolayer of HEK 293 cells stably expressing human GluR2 flip (unedited) AMPA receptor subunit (obtained from GlaxoSmithKline). These cells form functional homotetrameric AMPA receptors. The tissue culture medium in the wells was discarded and the wells were each washed three times with standard buffer for the cell line ([…] NaCl, 5 mM KCl, 1 mM MgCl2, 2 mM CaCl2, 20 mM N-[2-hydroxyethyl]-piperazine-N-[2-ethanesulfonic acid (HEPES), 5.5 mM glucose, pH7.3). The plates were then incubated for 60 minutes in the dark with 2 μM Calcium 6 dye (Molecular Devices). After incubation, each well was washed three times with buffer (80 μl).
Compounds of the invention were dissolved in dimethylsulfoxide (DMSO) at a stock concentration of 10 mM. These solutions were further diluted with DMSO. Each dilution (4 μl) to another compound plate and buffer (200 μl) was added. An agonist stimulus plate (glutamate) was prepared by dissolving sodium glutamate in water to give a concentration of 100 mM. This solution was diluted with buffer to give a final concentration of 500 μM and dispensed into another 96 well plate (200 μl/well).
The cell plate was then transferred to a fluorescence imaging plate reader such as the Flexstation 3 (Molecular Devices). A baseline fluorescence was taken over a 10 to 240 second period and then 40 μl from each plate containing a compound of the invention made up in standard buffer solution was added. Volumes were chosen to give a final concentration range of 40 μM to 4 μM. The fluorescence was then read over a 4 minute period. The activities of the compounds were determined by measuring peak fluorescence after the last addition. The activity can also be expressed relative to the fluorescence increase induced by cyclothiazide at their maximum response (i.e. greater than 40 μM).
For the molecule `O=C1CCCN1Cc1ccc(-c2ccc(CO)c(C(F)(F)F)n2)cc1` [Example 1, 1-[[4-[5-(Hydroxymethyl)-6-(trifluoromethyl)-2-pyridyl]phenyl]methyl]pyrrolidin-2-one], the activation at 10 µM amounted to 33%.

With `Cc1cc(C(F)(F)F)nc(-c2ccc(CN3CCCC3=O)cc2)c1CO` [Example 2, 1-[[4-[3-(Hydroxymethyl)-4-methyl-6-(trifluoromethyl)-2-pyridyl]phenyl]methyl]pyrrolidin-2-one], the activation at 10 µM was 41%.

Regarding `CNC(=O)c1c(C)cc(C(F)(F)F)nc1-c1ccc(CN2CCCC2=O)cc1` [Example 3, N,4-Dimethyl-2-[4-[(2-oxopyrrolidin-1-yl)methyl]phenyl]-6-(trifluoromethyl)pyridine-3-carboxamide], the activation at 10 µM came to 4%. On to `O=C1CCCN1Cc1ccc(-c2nc(C(F)(F)F)ccc2CO)cc1` [Example 4, 1-[[4-[3-(Hydroxymethyl)-6-(trifluoromethyl)-2-pyridyl]phenyl]methyl]pyrrolidin-2-one], for which the activation at 10 µM is 9%. With `Cc1cc(C(F)(F)F)nc(-c2ccc(CN3CCCC3=O)cc2)c1C#N` [Example 5, 4-Methyl-2-[4-[(2-oxopyrrolidin-1-yl)methyl]phenyl]-6-(trifluoromethyl)pyridine-3-carbonitrile] the figure was 99%.

In the case of `Cc1nc(C(F)(F)F)nc(-c2ccc(CN3CCCC3=O)cc2)c1C` [Example 6, 1-[[4-[5,6-Dimethyl-2-(trifluoromethyl)pyrimidin-4-yl]phenyl]methyl]pyrrolidin-2-one], the activation at 10 µM stood at 29%.

Take `N#Cc1ccc(C(F)(F)F)nc1-c1ccc(CN2CCCC2=O)cc1` [Example 7, 2-[4-[(2-Oxopyrrolidin-1-yl)methyl]phenyl]-6-(trifluoromethyl)pyridine-3-carbonitrile]: the activation at 10 µM is 21%. As for `O=C1COCCN1Cc1ccc(-c2ccc(CO)c(C(F)(F)F)n2)cc1` [Example 8, 4-[[4-[5-(Hydroxymethyl)-6-(trifluoromethyl)-2-pyridyl]phenyl]methyl]morpholin-3-one], the activation at 10 µM came out at 14%.

Regarding `Cc1cc(C(F)(F)F)nc(-c2ccc(CN3CCOCC3=O)cc2)c1CO` [Example 9, 4-[[4-[3-(Hydroxymethyl)-4-methyl-6-(trifluoromethyl)-2-pyridyl]phenyl]methyl]morpholin-3-one], the activation at 10 µM was found to be 14%. In the case of `O=C1COCCN1Cc1ccc(-c2nc(C(F)(F)F)ccc2CO)cc1` [Example 10, 4-[[4-[3-(Hydroxymethyl)-6-(trifluoromethyl)-2-pyridyl]phenyl]methyl]morpholin-3-one], the activation at 10 µM was 3%. On to `N#Cc1ccc(C(F)(F)F)nc1-c1ccc(CN2CCOCC2=O)cc1` [Example 11, 2-[4-[(3-Oxomorpholin-4-yl)methyl]phenyl]-6-(trifluoromethyl)pyridine-3-carbonitrile], for which the activation at 10 µM is 11%. As for `Cc1cc(C(F)(F)F)nc(-c2ccc(CN3CCCOCC3=O)cc2)c1CO` [Example 12, 4-[[4-[3-(Hydroxymethyl)-4-methyl-6-(trifluoromethyl)-2-pyridyl]phenyl]methyl]-1,4-oxazepan-3-one], the activation at 10 µM was determined as 9%. Consider `Cc1cc(C(F)(F)F)nc(-c2ccc(CN3CCOCCC3=O)cc2)c1CO` [Example 13, 4-[[4-[3-(Hydroxymethyl)-4-methyl-6-(trifluoromethyl)-2-pyridyl]phenyl]methyl]-1,4-oxazepan-5-one], for which the activation at 10 µM is 5%. As to `Cc1cc(C(F)(F)F)nc(-c2ccc(CN3CCCC3=O)nc2)c1CO` [Example 14, 1-[[5-[3-(Hydroxymethyl)-4-methyl-6-(trifluoromethyl)-2-pyridyl]-2-pyridyl]methyl]pyrrolidin-2-one], the activation at 10 µM is 5%. Take `N#Cc1ccc(C(F)(F)F)nc1-c1ccc(CN2CCCC2=O)nc1` [Example 15, 2-[6-[(2-Oxopyrrolidin-1-yl)methyl]-3-pyridyl]-6-(trifluoromethyl)pyridine-3-carbonitrile]: the activation at 10 µM came out at 6%. On to `O=C1CCCN1Cc1ccc(-c2ccc(CF)c(C(F)(F)F)n2)cc1` [Example 16, 1-[[4-[5-(Fluoromethyl)-6-(trifluoromethyl)-2-pyridyl]phenyl]methyl]pyrrolidin-2-one], for which the activation at 10 µM was 28%. As to `Cc1cc(C(F)(F)F)nc(-c2ccc(CN3CCCC3=O)cc2)c1CF` [Example 17, 1-[[4-[3-(Fluoromethyl)-4-methyl-6-(trifluoromethyl)-2-pyridyl]phenyl]methyl]pyrrolidin-2-one], the activation at 10 µM is 111%.

Regarding `O=C1CCCN1Cc1ccc(-c2nc(C(F)(F)F)ncc2CF)cc1` [Example 18, 1-[[4-[5-(Fluoromethyl)-2-(trifluoromethyl)pyrimidin-4-yl]phenyl]methyl]pyrrolidin-2-one], the activation at 10 µM came out at 5%.

As to `O=C1CCCN1Cc1ccc(-c2nc(C(F)(F)F)ccc2CF)cc1` [Example 19, 1-[[4-[3-(Fluoromethyl)-6-(trifluoromethyl)-2-pyridyl]phenyl]methyl]pyrrolidin-2-one], the activation at 10 µM is 70%. As to `Cc1cc(C(F)(F)F)nc(-c2ccc(CN3CCOCC3=O)cc2)c1CF` [Example 20, 4-[[4-[3-(Fluoromethyl)-4-methyl-6-(trifluoromethyl)-2-pyridyl]phenyl]methyl]morpholin-3-one], the activation at 10 µM worked out at 112%.

On to `O=C1COCCN1Cc1ccc(-c2nc(C(F)(F)F)ccc2CF)cc1` [Example 21, 4-[[4-[3-(Fluoromethyl)-6-(trifluoromethyl)-2-pyridyl]phenyl]methyl]morpholin-3-one], for which the activation at 10 µM is 16%. With `Cc1cc(C(F)(F)F)nc(-c2ccc(CN3CCCC3=O)nc2)c1CF` [Example 22, 1-[[5-[3-(Fluoromethyl)-4-methyl-6-(trifluoromethyl)-2-pyridyl]-2-pyridyl]methyl]pyrrolidin-2-one] the figure was 93%. Turning to `O=C1CCCN1Cc1ccc(-c2nc(C(F)(F)F)ccc2CF)cn1` [Example 23, 1-[[5-[3-(Fluoromethyl)-6-(trifluoromethyl)-2-pyridyl]-2-pyridyl]methyl]pyrrolidin-2-one], the activation at 10 µM stood at 9%. `Cc1cc(C(F)(F)F)nc(-c2ccc(CN3CCOCC3=O)cc2)c1C#N` [Example 24, 4-Methyl-2-[4-[(3-oxomorpholin-4-yl)methyl]phenyl]-6-(trifluoromethyl)pyridine-3-carbonitrile]: the activation at 10 µM turned out to be 39%. In the case of `O=C1CCCN1Cc1ccc(-c2cc(CO)cc(C(F)(F)F)n2)cc1` [Example 25, 1-[[4-[4-(Hydroxymethyl)-6-(trifluoromethyl)-2-pyridyl]phenyl]methyl]pyrrolidin-2-one], the activation at 10 µM turned out to be 8%. As for `COCc1cc(-c2ccc(CN3CCCC3=O)cc2)nc(C(F)(F)F)c1` [Example 26, 1-[[4-[4-(Methoxymethyl)-6-(trifluoromethyl)-2-pyridyl]phenyl]methyl]pyrrolidin-2-one], the activation at 10 µM was determined as 4%. Consider `Cc1cc(C(F)(F)F)nc(-c2ccc(CN3CCCC3=O)cc2)n1` [Example 27, 1-[[4-[4-Methyl-6-(trifluoromethyl)pyrimidin-2-yl]phenyl]methyl]pyrrolidin-2-one], for which the activation at 10 µM came out at 27%. Consider `O=C1CCCN1Cc1ccc(-c2nc(C(F)F)ccc2CO)cc1` [Example 28, 1-[[4-[6-(Difluoromethyl)-3-(hydroxymethyl)-2-pyridyl]phenyl]methyl]pyrrolidin-2-one], for which the activation at 10 µM was determined as 2%.

Values taken from US11298345B2, “Compounds that modulates AMPA receptor function” (University College Cardiff Consultants Limited, priority 2018, dated 2022).
